Data: patent US20220008437A1, “Use of prostaglandin E1 methyl ester in manufacture of vasodilator” (XI'AN LIBANG ZHAOXIN BIOTECHNOLOGY CO., LTD., priority 2018, published 2022)
Like-named read-outs stand apart in the source and are kept apart here.

How the values were obtained:
[1] = test system: ADP-induced platelet aggregation; assay: anti-platelet aggregation test in vitro (platelet-rich plasma, ADP inducer); assay type: cell-based, SD rats; settings: for inhibition at 100 µM: Rattus norvegicus, Platelet, 10 min, after 10 minutes of incubation, read-out: inhibition rate on ADP-induced platelet aggregation; for onset of anti-platelet aggregation effect after addition to PRP: incubation 0 min onward, FIG. 1
Description: The Effect of the Prostaglandin E1 Methyl Ester of the Disclosure in the Anti-Platelet Aggregation Test In Vitro.
When healthy adult SD rats were anesthetized by intraperitoneal injection of 10% chloral hydrate, fresh whole blood was collected from the abdominal aorta and added to a centrifuge tube anticoagulated with 3.8% sodium citrate solution, and centrifuged at 900 rpm for 10 minutes to remove the upper platelet-rich plasma (PRP) for use. The tube having PRP removed was further centrifuged at 4000 rpm for 10 minutes, and the upper clarified plasma (PPP) was removed for use. In the experiment, Techlink model LBY-NJ4 4-channel platelet aggregator was used to determine the anticoagulant efficacy of each compound.
Into a sample cup containing 300 μL of PRP, 2 μL of 100 μM prostaglandin E1, prostaglandin E1 methyl ester of example 1, Compound 2 of Example 2 and methanol (solvent) were first added. After incubated for different periods (0, 1, 2, 4, 7, 10, 15 min), 20 μL of aggregation inducer 180 μM ADP solution was added. The aggregation rate of each sample was measured, and the inhibitory rate of the compound on ADP-induced platelet aggregation was calculated.
Inhibition rate %=(solvent aggregation rate−compound aggregation rate)/solvent aggregation rate×100%

hDP1 = target: T1, hDP1 (Homo sapiens, UniProt Q13258); assay: radioligand ([3H] Prostaglandin D2) competitive receptor binding assay, DP receptor affinity in vitro; settings: Test Concentration 100 nM; [3H] PGD2 radioligand; read-out: Inhibition rate
T1 sequence (Q13258 1-359): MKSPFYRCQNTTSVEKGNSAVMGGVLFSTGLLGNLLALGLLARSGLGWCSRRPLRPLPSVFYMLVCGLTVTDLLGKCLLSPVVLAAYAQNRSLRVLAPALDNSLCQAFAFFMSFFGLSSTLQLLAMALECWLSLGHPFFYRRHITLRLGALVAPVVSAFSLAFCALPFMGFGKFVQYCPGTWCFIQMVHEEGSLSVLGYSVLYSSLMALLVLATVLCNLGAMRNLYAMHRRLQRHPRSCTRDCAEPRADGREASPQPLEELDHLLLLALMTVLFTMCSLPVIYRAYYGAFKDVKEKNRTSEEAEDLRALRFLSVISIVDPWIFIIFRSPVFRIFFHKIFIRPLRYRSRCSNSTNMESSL
Source text: Affinity Test of DP Receptor Target In Vitro.
The radioligand ([3H] Prostaglandin D2 (PGD2)) competitive receptor binding assay was used to evaluate the affinity of the test compound with the DP receptor.

mouse scleroderma model = mouse scleroderma model (bleomycin subcutaneously); assay type: in vivo, Balb/c mice; settings: for Skin thickness / Collagen content: osmotic pump 28 days; for Skin thickness: inferior vena cava; for Collagen content: skin
Description: Therapeutic Effect of Prostaglandin E1 Methyl Ester in Mouse Scleroderma Model In this experiment, 56 Balb/c mice weighing 22-25 g were randomly divided into 7 groups: normal group, model group, vehicle group, prostaglandin E1 high-dose group and prostaglandin E1 low-dose group, and prostaglandin E1 methyl ester high-dose group and prostaglandin E1 methyl ester low-dose group. Model preparation: the clothing hair on the central area of the mice was shaved, the normal group was injected with 0.1 ml PBS subcutaneously on the back, and the other groups were injected with 0.1 ml of 0.2 mg/ml bleomycin subcutaneously, once a day for three weeks. […] Prostaglandin E1 high and low-dose groups were loaded with 28 μg and 14 μg of drugs respectively; prostaglandin E1 methyl ester high and low-dose groups were also loaded with 28 μg and 14 μg of drugs respectively; solvent group was not loaded with drugs. […] The administration was started at the same time as the model was created. Index detection: After the administration, the animals were sacrificed, and skin and lung sections of the injection site were made, and HE stained. The histological changes were observed, and the skin (dermis) thickness was measured; and the photoelectric colorimetry was used to determine the content of hydroxyproline and protein in the skin to infer the content of collagen.

[2] = test system: isolated rabbit blood vessels; assay: vasodilation test in vitro, isolated aortic ring specimens; assay type: cell-based, New Zealand white rabbits; settings: isolated rabbit thoracic aortic rings, cumulative addition 0.05-25.6 nM, read-out: diastolic efficacy EC50
Source text: The Effect of the Prostaglandin E1 Methyl Ester of the Disclosure in the Vasodilation Test In Vitro
In the experiment, rabbits were selected to prepare isolated aortic ring specimens: New Zealand white rabbits, male, weighing (2.5±0.3) kg. The rabbit was stunned with a blunt instrument, fixed on the rabbit dissecting table, and the thoracic aorta was quickly separated, and placed in a petri dish filled with saturated Kerbs solution (containing NaCl 6.9 g, KCl 0.35 g, MgSO4.7H2O 0.29 g, KH2PO4 0.16 g, NaHCO32.1 g, CaCl2) 0.28 g, glucose 2 g per 1000 mL) at 37° C. and continuously introduced with mixed gas (95% O2, 5% CO2). The remaining blood in the blood vessel was squeezed out, and the peripheral fat and connective tissue were carefully peeled off, and it was cut into 0.5 cm long arterial rings for use. […]
BL-420S biological function experiment system (Chengdu Techman Technology) was used to record the variation of vascular ring tension. After the vascular ring contraction was stable, prostaglandin E1 and the compounds of the Examples were accumulatively added to successively increase the final mass concentration of prostaglandin E1 in the bath tube to 0.05, 0.1, 0.2, 0.4, 0.8, 1.6, 3.2, 6.4, 12.8, 25.6 nM, and the diastolic efficacies of the vascular ring were recorded.

[3] = test system: human umbilical vein endothelial cells (HUVEC); assay: HUVEC proliferation, MTT detection; assay type: cell-based; settings: 1-100 nM, incubated 24 hours, compared with unmedicated wells
Description: Frozen human umbilical vein endothelial cells (HUVEC) were resuscitated and placed in low-sugar DMEM medium with 10% (V/V) FBS, and 100 U/L penicillin and 0.1 g/L streptomycin were added. It was cultured artificially in an environment of 5% CO2 and 95% air at a temperature of 37° C. A fresh medium was replaced every three days. When the cell density reached 70-80%, the digestion solution (0.25% trypsin/0.02EDTA) was used to harvest the cells. After the cells were resuspended, they were seeded in a 96-well plate with a density of 5×10^3 per well. After 1 day of culture, 1-100 nM of prostaglandin methyl ester was added and incubated for 24 hours for MTT detection.

[4] = distribution in rat skin tissue (total radiation value); settings: 200 μg [3H]-labelled drug via osmotic pump over 3 days, inferior vena cava
Description: Distribution of Prostaglandin E1 Methyl Ester in Rat Skin Tissue
In this experiment, 12 male SD rats weighing 250-280 g were randomly divided into two groups (n=6): prostaglandin E1 group and prostaglandin E1 methyl ester group. Osmotic pumps (model 1003D, ALZA Corporation, Canada) containing 100 μl of drug in DMSO were used. The drug was released at a constant rate, and the drug release cycle was 3 days. They were loaded with 200 μg of [^3H] prostaglandin E1 and [^3H] prostaglandin E1 methyl ester respectively. […] After the administration, the animals were sacrificed, skin tissues were taken (the same position for each animal), weighed, and the total radiation value was measured.

[5] = 2 μL of 100 μM compound in 300 μL PRP

CCCCC[C@H](O)/C=C/[C@H]1[C@H](O)CC(=O)[C@@H]1CCCCCCC(=O)OCC [Compound 2]
inhibition at 100 µM [1, 5]: 51.9% | onset of anti-platelet aggregation effect after addition to PRP [1]: does not take effect immediately

CCCCCC(O)/C=C/C1C(O)CC(=O)C1CCCCCCC(=O)OC (stereo not drawn) [prostaglandin E1 methyl ester]
inhibition at 0.1 µM (hDP1): 78% | lung tissue histology (alveolar septum thickening, inflammatory cell infiltration) (mouse scleroderma model; HE stained lung sections, compared with prostaglandin E1 group): slightly better than the prostaglandin E1 group | Skin thickness (mouse scleroderma model; high-dose 1 ug/day): 21.35 ± 2.11 μm | Collagen content (mouse scleroderma model; high-dose 1 ug/day): 467.52 ± 141.08 mg/L | Skin thickness (mouse scleroderma model; low-dose 0.5 ug/day): 24.66 ± 2.54 μm | Collagen content (mouse scleroderma model; low-dose 0.5 ug/day): 588.62 ± 127.41 mg/L | EC50 ([2]; Oryctolagus cuniculus): 1.09 nM | proliferation of vascular endothelial cells [3]: significant effect of promoting the proliferation of vascular endothelial cells | inhibition at 100 µM [1, 5]: 43.7% | duration of anticoagulant effect relative to prostaglandin E1 ([1]; compared with prostaglandin E1): 2 times | onset of anti-platelet aggregation effect after addition to PRP [1]: take effect immediately

CCCCC[C@H](O)/C=C/[C@H]1[C@H](O)CC(=O)[C@@H]1CCCCCCC(=O)O [prostaglandin E1, Prostaglandin E1]
Skin tissue concentration [4]: 45.1 ± 7.5 ng (radiatione quivalent)/g | Skin thickness (mouse scleroderma model; high-dose 1 ug/day): 29.12 ± 2.46 μm | Collagen content (mouse scleroderma model; high-dose 1 ug/day): 879.66 ± 128.92 mg/L | Skin thickness (mouse scleroderma model; low-dose 0.5 ug/day): 32.59 ± 3.03 μm | Collagen content (mouse scleroderma model; low-dose 0.5 ug/day): 947.99 ± 214.86 mg/L | EC50 [2]: 9.77 nM | inhibition rate on ADP-induced platelet aggregation ([1]; after 4 minutes of incubation, 2 μL of 100 μM compound in 300 μL PRP): 4.93% | onset of anti-platelet aggregation effect after addition to PRP [1]: take effect immediately
